IC50 data for eight molecules are collected here from patent publication US9084794B2, “Fatty acid synthase inhibitors” (GlaxoSmithKline Intellectual Property (No. 2) Limited, priority 2011, dated 2015).

The target in the experiment is FAS (Homo sapiens, UniProt P49327). Description: FAS activity inhibition (Assay #1 residual NADPH/resazurin or Assay #2 CoA/CPM thio-reactive dye). It is filed as biochemical. To be noted: measured through one of the two assays, at least one experiment or the average of multiple experiments. How it is done: FAS activity was measured through one of the two following assays.
Sequence of FAS (P49327 whole entry): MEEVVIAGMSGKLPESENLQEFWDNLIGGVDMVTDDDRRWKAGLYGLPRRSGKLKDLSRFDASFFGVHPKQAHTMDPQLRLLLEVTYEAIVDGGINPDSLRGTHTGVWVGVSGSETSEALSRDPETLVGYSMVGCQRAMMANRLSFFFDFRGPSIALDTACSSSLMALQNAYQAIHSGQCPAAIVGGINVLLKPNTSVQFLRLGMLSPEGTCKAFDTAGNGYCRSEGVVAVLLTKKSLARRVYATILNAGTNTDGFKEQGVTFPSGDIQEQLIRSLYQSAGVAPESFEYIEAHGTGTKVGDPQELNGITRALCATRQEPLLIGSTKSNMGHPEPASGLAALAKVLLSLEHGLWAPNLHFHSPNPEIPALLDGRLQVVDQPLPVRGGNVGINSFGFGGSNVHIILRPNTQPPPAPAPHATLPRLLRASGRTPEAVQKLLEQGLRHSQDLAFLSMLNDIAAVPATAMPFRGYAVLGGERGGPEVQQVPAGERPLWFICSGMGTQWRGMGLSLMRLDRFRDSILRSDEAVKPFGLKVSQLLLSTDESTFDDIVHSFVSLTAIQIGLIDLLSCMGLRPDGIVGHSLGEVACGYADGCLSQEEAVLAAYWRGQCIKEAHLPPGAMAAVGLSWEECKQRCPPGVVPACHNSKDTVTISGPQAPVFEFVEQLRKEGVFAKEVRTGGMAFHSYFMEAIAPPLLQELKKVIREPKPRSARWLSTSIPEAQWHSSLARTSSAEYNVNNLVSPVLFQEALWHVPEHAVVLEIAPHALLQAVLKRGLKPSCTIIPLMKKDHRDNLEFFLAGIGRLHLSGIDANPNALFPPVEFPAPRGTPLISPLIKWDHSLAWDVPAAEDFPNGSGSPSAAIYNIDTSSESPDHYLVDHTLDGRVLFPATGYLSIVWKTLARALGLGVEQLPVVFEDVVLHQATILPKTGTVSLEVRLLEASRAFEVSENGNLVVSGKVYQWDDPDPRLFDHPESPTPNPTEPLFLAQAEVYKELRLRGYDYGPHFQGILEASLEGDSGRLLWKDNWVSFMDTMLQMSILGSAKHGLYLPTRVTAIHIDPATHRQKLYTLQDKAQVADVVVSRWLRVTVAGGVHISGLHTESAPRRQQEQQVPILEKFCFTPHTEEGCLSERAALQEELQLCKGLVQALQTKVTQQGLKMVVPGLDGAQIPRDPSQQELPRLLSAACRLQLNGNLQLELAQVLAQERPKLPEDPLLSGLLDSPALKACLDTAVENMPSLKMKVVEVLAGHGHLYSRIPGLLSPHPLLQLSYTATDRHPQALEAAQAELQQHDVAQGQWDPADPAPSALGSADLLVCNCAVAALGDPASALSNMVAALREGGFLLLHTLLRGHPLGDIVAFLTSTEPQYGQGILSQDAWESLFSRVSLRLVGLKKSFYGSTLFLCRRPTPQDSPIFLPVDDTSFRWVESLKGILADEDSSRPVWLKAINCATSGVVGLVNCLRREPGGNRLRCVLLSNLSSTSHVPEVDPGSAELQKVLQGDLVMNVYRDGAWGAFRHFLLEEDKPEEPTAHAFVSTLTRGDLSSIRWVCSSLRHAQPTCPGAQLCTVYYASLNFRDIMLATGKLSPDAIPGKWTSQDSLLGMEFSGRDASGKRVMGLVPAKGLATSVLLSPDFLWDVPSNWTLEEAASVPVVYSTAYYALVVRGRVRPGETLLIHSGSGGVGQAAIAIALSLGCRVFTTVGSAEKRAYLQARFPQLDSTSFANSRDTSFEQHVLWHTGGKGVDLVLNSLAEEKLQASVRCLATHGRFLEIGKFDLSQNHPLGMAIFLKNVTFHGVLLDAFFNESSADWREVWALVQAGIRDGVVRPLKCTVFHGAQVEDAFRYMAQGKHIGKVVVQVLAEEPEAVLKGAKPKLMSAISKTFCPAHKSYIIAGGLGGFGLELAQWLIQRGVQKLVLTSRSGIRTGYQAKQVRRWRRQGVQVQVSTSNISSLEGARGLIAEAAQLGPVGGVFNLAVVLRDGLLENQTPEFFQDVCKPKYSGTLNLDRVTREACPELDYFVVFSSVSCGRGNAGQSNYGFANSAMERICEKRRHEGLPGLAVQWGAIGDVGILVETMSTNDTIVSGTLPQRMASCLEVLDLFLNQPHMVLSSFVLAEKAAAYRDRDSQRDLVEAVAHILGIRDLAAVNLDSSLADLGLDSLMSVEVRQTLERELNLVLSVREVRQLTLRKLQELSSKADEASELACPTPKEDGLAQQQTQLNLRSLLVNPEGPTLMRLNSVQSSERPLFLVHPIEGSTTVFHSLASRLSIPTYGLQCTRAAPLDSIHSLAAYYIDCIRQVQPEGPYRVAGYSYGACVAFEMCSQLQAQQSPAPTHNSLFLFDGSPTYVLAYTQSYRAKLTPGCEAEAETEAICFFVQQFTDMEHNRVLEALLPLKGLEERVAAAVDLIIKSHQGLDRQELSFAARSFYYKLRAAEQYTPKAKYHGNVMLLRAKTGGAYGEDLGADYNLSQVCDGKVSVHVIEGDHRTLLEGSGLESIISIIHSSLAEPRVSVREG
Inhibition of FAS activity can be measured based on the detection of residual NADPH substrate after the FAS assay is quenched. This assay is run as a 10 μL endpoint assay in 384-well format, where the reaction contains 20 μM malonyl-CoA, 2 μM acetyl-CoA, 30 μM NADPH and 40 nM FAS in 50 mM sodium phosphate, pH 7.0. The assay is run by sequentially dispensing 5 μl of a malonyl-CoA solution, then enzyme solution Containing the acetyl-CoA, and NADPH) into a black, low volume assay plate (Greiner 784076) pre-dispensed with 100 nL compound solutions in DMSO. The reaction is incubated at ambient temperature for 60 minutes, then quenched with 5 μL, of a developing solution composed of 90 μM resazurin, 0.3 IU/ml diaphorase in 50 mM sodium phosphate, pH 7.0. The developed reaction is read on a Molecular Devices Analyst or Acquest (or equivalent) plate reader using a 530 nm excitation wavelength filter, a 580 nm emission filter, and 561 nm dichroic filter. The test compounds are prepared in neat DMSO at a concentration of 10 mM. For inhibition curves, compounds are diluted using a three fold serial dilution and tested at 11 concentrations (e.g. 25 μM-0.42 nM). Curves are analysed using ActivityBase and XLfit, and results are expressed as pIC50 values.
Inhibition of FAS can also be quantified based on the detection of the CoA products with a thio-reactive coumarin dye. This assay is run as a […] assay in 384-well format, where the reaction contains 20 μM malonyl-CoA, 20 μM acetyl-CoA, 40 μM NADPH and 2 nM FAS in 50 mM sodium phosphate, pH 7.0, and 0.04% Tween-20. The assay is run by adding […] enzyme solution to a black, low volume assay plate (Greiner 784076) pre-dispensed with 100 nl compound solutions in DMSO. After 30 minutes, 5 μL substrate is added, and the reaction incubated at ambient temperature for an additional 60 minutes. The reaction is then quenched with 100 μL of 6M guanidine-HCl containing 50 μM CPM (7-diethylamino-3-(4′-maleimidylphenyl)-4-methylcoumarin CPM; thio-reactive dye), and incubated for 30 minutes. The plate is read on an Envision (PerkinElmer) or equivalent plate reader using a 380 nm excitation wavelength filter, and a 486 nm emission filter. Data fitting and compound preparations are done as described above.
Consider `NC(=O)C(c1ccc(-c2ccc3cccnc3c2)cc1F)N1CCC2(CC1)CN(C1CC1)C(=O)CO2` (single isomer, unassigned; (+)) [Example 9, (+)-2-(4-cyclopropyl-3-oxo-1-oxa-4,9-diazaspiro[5.5]undec-9-yl)-2-[2-fluoro-4-(7-quinolinyl)phenyl]acetamide], for which 3 nM corresponded to half-maximal inhibition (IC50). In other words, the single-digit nanomolar range.

As to `COc1ccc(-c2ccc(C(C(N)=O)N3CCC4(CC3)CN(C3CC3)C(=O)CO4)c(F)c2)cc1` (centres unmarked) [Example 33, 2-(4-cyclopropyl-3-oxo-1-oxa-4,9-diazaspiro[5.5]undecan-9-yl)-2-(3-fluoro-4′-methoxy-[1,1′-biphenyl]-4-yl)acetamide], it took 200 nM to reach half-maximal inhibition (IC50).

On to `NC(=O)C(c1c(F)cc(-c2ccc3cccnc3c2)cc1F)N1CCC2(CC1)CN(C1CC1)C(=O)CO2` (single isomer, unassigned; (+)) [Example 73, (+)-2-(4-cyclopropyl-3-oxo-1-oxa-4,9-diazaspiro[5.5]undecan-9-yl)-2-(2,6-difluoro-4-(quinolin-7-yl)phenyl)acetamide], for which the IC50 turned out to be 1 nM. Against the preceding molecule, the IC50 is about 200-fold lower.

`O=C1COC2(CCN(C(CO)c3ccc(-c4ccc5cccnc5c4)cc3)CC2)CN1C1CC1` (racemic) [Example 22, 4-cyclopropyl-9-(2-hydroxy-1-(4-(quinolin-7-yl)phenyl)ethyl)-1-oxa-4,9-diazaspiro[5.5]undecan-3-one] showed an IC50 of 20 nM.

As for `O=C(O)CC(c1ccc(-c2ccc3cccnc3c2)cc1)N1CCC2(CC1)CN(C1CC1)C(=O)CO2` (centres unmarked) [Example 6, 3-(4-cyclopropyl-3-oxo-1-oxa-4,9-diazaspiro[5.5]undecan-9-yl)-3-(4-(quinolin-7-yl)phenyl)propanoic acid], the concentration for half-maximal inhibition (IC50) came out at 501 nM.

`NC(=O)C(c1ccc(-c2ccc3cccnc3c2)cc1F)N1CCC2(CC1)CN(C1(CO)CC1)C(=O)CO2` (single isomer, unassigned; (-)) [Example 30, (−)-2-(2-fluoro-4-(quinolin-7-yl)phenyl)-2-(4-(1-(hydroxymethyl)cyclopropyl)-3-oxo-1-oxa-4,9-diazaspiro[5.5]undecan-9-yl)acetamide] returned an IC50 of 3 nM.

With `CC(c1ccc(-c2ccc3cccnc3c2)cc1)N1CCC2(CC1)CN(C1CC1)C(=O)CO2` (centres unmarked) [Example 13, 4-cyclopropyl-9-(1-(4-(quinolin-7-yl)phenyl)ethyl)-1-oxa-4,9-diazaspiro[5.5]undecan-3-one], it took 50 nM to reach half-maximal inhibition (IC50).

Regarding `COc1c(-c2ccc(C(C(N)=O)N3CCC4(CC3)CN(C3CC3)C(=O)CO4)c(F)c2)ccc2cccnc12` (single isomer, unassigned; (-)) [Example 78, (−)-2-(4-cyclopropyl-3-oxo-1-oxa-4,9-diazaspiro[5.5]undecan-9-yl)-2-(2-fluoro-4-(8-methoxyquinolin-7-yl)phenyl)acetamide], the IC50 worked out at 4 nM. Compared with the last molecule, the IC50 is about 12-fold lower.
